Measured values: paper PMC10600247, “Impact of C- and N-terminal protection on the stability, metal chelation and antimicrobial properties of calcitermin” (Scientific Reports, 2023)
Residues, ends and D or L forms follow the SMILES beside them.

Key:
S. aureus (ATCC 25293) = assay: In vitro anti-S. aureus CFU assay; type: cell-based, Staphylococcus aureus; conditions: 3 h, pH 5.4; for mean CFU number ± S.D.: per 0.1 mL
Experimental: (§1) All microbes were grown at 37 °C in Tryptic Soy Broth (TSB; Biolife, Milan, Italy) or Tryptic Soy Agar plates (TSA, Biolife, Milan, Italy). Peptides were tested at a final concentration C = 0.128, 0.064, 0.032 mg/mL, in the presence or absence of ZnCl2 or CuCl2, at a M:L molar ratio 0.9:1. Briefly, all the microbes were expanded in TSB at 37 °C under agitation for 12 h and then sub-cultured by 1:10 dilution in TSB under the same conditions until reaching OD600nm = 0.3–0.4, as measured by spectrophotometric reading using a GENESYS 10S UV–Vis spectrophotometer (Thermo Scientific, Milan, Italy), corresponding to 0.9–1.2 × 10^7 colony forming units (CFU) per mL, 1.5–2 × 10^8 CFU/mL and 2.4–3.2 × 10^8 CFU/mL, for C. albicans, S. aureus and E. coli respectively. The cultures were then centrifuged at 4500 rpm for 10 min in a SL 8 centrifuge (TX-150 Rotor) (Thermo Scientific, Milan, Italy), and the cellular pellets were washed with PBS pH 5.4. Pelletized cultures were then suspended in 10 mL of PBS pH 5.4, then the suspensions were diluted to a final concentration of 10^4 CFU/mL. Aliquots of 100 µl (corresponding to 10^3 CFU) were seeded in each well of a 96-wells plate. 3 µl of TSB at pH 5.4 were added to each well to obtain a final 1.5% TSB concentration in the culture medium. Peptides were serially diluted in PBS pH 5.4 to C = 0.257, 0.128, and 0.064 mg/mL. ZnCl2 and CuCl2 solutions were added where requested to obtain a M:L ratio 0.9:1. 100 µl of the prepared peptides ± ZnCl2/CuCl2 solutions were then added to each well, obtaining the final 0.128, 0.064 and 0.032 mg/mL peptide concentrations in a total 0.2 mL volume. PBS alone and PBS + ZnCl2/CuCl2 solutions were included as controls. The plates were incubated at 37 °C on a platform rocker with slow stirring for 3 and 24 h. At the end of the incubation times, 100 µl aliquots were taken from each sample and diluted in PBS pH 5.4 to be seeded on TSA plates. Specifically, aliquots were diluted 1:10 at 3 h, and 1:200, 1:100,000 and 1:10 at 24 h, for C. albicans, E. coli, and S. aureus respectively. After incubation for 24 h at 37 °C, grown CFUs were enumerated. Samples were assayed in triplicate in two independent experiments. Student’s t-test was used for the evaluation of significance in biological tests; a p value ≤ 0.05 was considered significant.

C. albicans (ATCC 10231) = assay: In vitro antifungal CFU assay; type: cell-based, Candida albicans; conditions: pH 5.4; for mean CFU number ± S.D.: per 0.1 mL
Experimental: as §1

[1] = peptide 0.032 mg/mL + CuCl2 (0.9:1), 3 h
[2] = peptide 0.032 mg/mL + CuCl2 (0.9:1), 24 h
[3] = peptide 0.032 mg/mL + ZnCl2 (0.9:1), 3 h
[4] = peptide 0.032 mg/mL + ZnCl2 (0.9:1), 24 h
[5] = peptide 0.064 mg/mL + CuCl2 (0.9:1), 3 h
[6] = peptide 0.064 mg/mL + CuCl2 (0.9:1), 24 h
[7] = peptide 0.064 mg/mL + ZnCl2 (0.9:1), 3 h
[8] = peptide 0.064 mg/mL + ZnCl2 (0.9:1), 24 h
[9] = peptide 0.128 mg/mL + CuCl2 (0.9:1), 3 h
[10] = peptide 0.128 mg/mL + CuCl2 (0.9:1), 24 h
[11] = peptide alone 0.032 mg/mL, 24 h
[12] = peptide alone 0.064 mg/mL, 24 h
[13] = peptide alone 0.128 mg/mL, 24 h

`CC[C@H](C)[C@H](NC(=O)[C@H](C)NC(=O)[C@@H](N)C(C)C)C(=O)N[C@@H](C)C(=O)N[C@@H](CC(C)C)C(=O)N[C@@H](CCCCN)C(=O)N[C@@H](C)C(=O)N[C@@H](C)C(=O)N[C@@H](Cc1c[nH]cn1)C(=O)N[C@@H](Cc1ccc(O)cc1)C(=O)N[C@@H](Cc1c[nH]cn1)C(=O)N[C@H](C(=O)N[C@@H](Cc1c[nH]cn1)C(=O)N[C@@H](CCCCN)C(=O)N[C@@H](CCC(=O)O)C(=O)O)[C@@H](C)O` [WT, VAIALKAAHYHTHKE, reference compound] (H-VAIALKAAHYHTHKE-OH) was tested, and the “mean CFU number ± S.D.” value (S. aureus (ATCC 25293); peptide 0.128 mg/mL + CuCl2 (0.9:1)) was 229 ± 55 CFU, the “CFU decrease/increase with respect to untreated controls” value (“CFU decrease/increase” for short) (S. aureus (ATCC 25293); peptide 0.128 mg/mL + ZnCl2 (0.9:1), listed as WT calcitermin) was -41% and the “mean CFU number ± S.D.” value (S. aureus (ATCC 25293); peptide 0.128 mg/mL + ZnCl2 (0.9:1)) was 96 ± 21 CFU. For the same molecule, the “CFU decrease/increase” value (S. aureus (ATCC 25293); peptide alone 0.032 mg/mL) was -9.3%, the “mean CFU number ± S.D.” value (S. aureus (ATCC 25293); peptide alone 0.032 mg/mL) was 146 ± 7 CFU and the “CFU decrease/increase” value (S. aureus (ATCC 25293); peptide alone 0.064 mg/mL) was -1.2%. For the same molecule, the “mean CFU number ± S.D.” value (S. aureus (ATCC 25293); peptide alone 0.064 mg/mL) was 159 ± 45 CFU, the “CFU decrease/increase” value (S. aureus (ATCC 25293); peptide alone 0.128 mg/mL) was -1.8% and the “mean CFU number ± S.D.” value (S. aureus (ATCC 25293); peptide alone 0.128 mg/mL) was 158 ± 59 CFU. The “CFU decrease/increase” value (C. albicans (ATCC 10231); [1]) was -12%, the “mean CFU number ± S.D.” value (C. albicans (ATCC 10231); [1]) was 74 ± 28 CFU and the “CFU decrease/increase” value (C. albicans (ATCC 10231); [2]) was -0.4%. For the same molecule, the “mean CFU number ± S.D.” value (C. albicans (ATCC 10231); [2]) was 1,771 ± 309 CFU, the “CFU decrease/increase” value (C. albicans (ATCC 10231); [3]) was -20% and the “mean CFU number ± S.D.” value (C. albicans (ATCC 10231); [3]) was 67 ± 35 CFU. The “CFU decrease/increase” value (C. albicans (ATCC 10231); [4]) was -31%, the “mean CFU number ± S.D.” value (C. albicans (ATCC 10231); [4]) was 1,235.8 ± 235 CFU and the “CFU decrease/increase” value (C. albicans (ATCC 10231); [5]) was “+1%”. The “mean CFU number ± S.D.” value (C. albicans (ATCC 10231); [5]) was 85 ± 24 CFU, the “CFU decrease/increase” value (C. albicans (ATCC 10231); [6]) was -16% and the “mean CFU number ± S.D.” value (C. albicans (ATCC 10231); [6]) was 1,489 ± 111 CFU. The “CFU decrease/increase” value (C. albicans (ATCC 10231); [7]) was -43%, the “mean CFU number ± S.D.” value (C. albicans (ATCC 10231); [7]) was 48.3 ± 22 CFU and the “CFU decrease/increase” value (C. albicans (ATCC 10231); [8]) was -58%. The “mean CFU number ± S.D.” value (C. albicans (ATCC 10231); [8]) was 754.3 ± 323 CFU, the “CFU decrease/increase” value (C. albicans (ATCC 10231); [9]) was -35% and the “mean CFU number ± S.D.” value (C. albicans (ATCC 10231); [9]) was 55 ± 11 CFU. The “CFU decrease/increase” value (C. albicans (ATCC 10231); [10]) was -0.6%, the “mean CFU number ± S.D.” value (C. albicans (ATCC 10231); [10]) was 1,790 ± 393 CFU and the “CFU decrease/increase” value (C. albicans (ATCC 10231); peptide 0.128 mg/mL + ZnCl2 (0.9:1), 3 h, listed as WT calcitermin) was -49%. The “mean CFU number ± S.D.” value (C. albicans (ATCC 10231); peptide 0.128 mg/mL + ZnCl2 (0.9:1), 3 h) was 42.7 ± 11 CFU, the “CFU decrease/increase” value (C. albicans (ATCC 10231); peptide 0.128 mg/mL + ZnCl2 (0.9:1), 24 h, listed as WT calcitermin) was -96% and the “mean CFU number ± S.D.” value (C. albicans (ATCC 10231); peptide 0.128 mg/mL + ZnCl2 (0.9:1), 24 h) was 62.8 ± 33 CFU. For the same molecule, the “CFU decrease/increase” value (C. albicans (ATCC 10231); peptide alone 0.032 mg/mL, 3 h, listed as WT calcitermin) was -67%, the “mean CFU number ± S.D.” value (C. albicans (ATCC 10231); peptide alone 0.032 mg/mL, 3 h) was 28 ± 15 CFU and the “CFU decrease/increase” value (C. albicans (ATCC 10231); [11]) was -24%. For the same molecule, the “mean CFU number ± S.D.” value (C. albicans (ATCC 10231); [11]) was 1,348± 698 CFU, the “CFU decrease/increase” value (C. albicans (ATCC 10231); peptide alone 0.064 mg/mL, 3 h, listed as WT calcitermin) was -67% and the “mean CFU number ± S.D.” value (C. albicans (ATCC 10231); peptide alone 0.064 mg/mL, 3 h) was 28 ± 15 CFU. The “CFU decrease/increase” value (C. albicans (ATCC 10231); [12]) was -33%, the “mean CFU number ± S.D.” value (C. albicans (ATCC 10231); [12]) was 1,289 ± 495 CFU and the “CFU decrease/increase” value (C. albicans (ATCC 10231); peptide alone 0.128 mg/mL, 3 h, listed as WT calcitermin) was -73%. For the same molecule, the “mean CFU number ± S.D.” value (C. albicans (ATCC 10231); peptide alone 0.128 mg/mL, 3 h) was 22.4 ± 15 CFU, the “CFU decrease/increase” value (C. albicans (ATCC 10231); [13]) was -41% and the “mean CFU number ± S.D.” value (C. albicans (ATCC 10231); [13]) was 1,052 ± 531 CFU.
